Key:
GHSR1a [1] = molecular target: T1, GHSR1a (Homo sapiens, UniProt Q92847); test: Calcium FLIPR assay, GHSR-1a antagonism (reduction of ghrelin response); assay type: cell-based; conditions: HEK293/GHSR1a cells, ghrelin 10 nM
T1 construct: expressed in transfected cells; host or cells: HEK293
Summary of the method: (§1)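 Uses HEK293 cells expressing GHSR1a, loaded with calcium dye, with FLIPR fluorescence followed for 2 min after addition at t=20 s. Agonism: compound alone. Antagonism: compound with 10 nM ghrelin, potency from reduction of ghrelin response; EC50/IC50 from dose-response curves.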

GHSR1a [2] = molecular target: T1, GHSR1a; test: Calcium FLIPR assay, GHSR-1a agonism; assay type: cell-based; design: Emax: unit not given here; conditions: HEK293/GHSR1a cells
Summary of the method: as §1

T1 sequence (Q92847 whole entry): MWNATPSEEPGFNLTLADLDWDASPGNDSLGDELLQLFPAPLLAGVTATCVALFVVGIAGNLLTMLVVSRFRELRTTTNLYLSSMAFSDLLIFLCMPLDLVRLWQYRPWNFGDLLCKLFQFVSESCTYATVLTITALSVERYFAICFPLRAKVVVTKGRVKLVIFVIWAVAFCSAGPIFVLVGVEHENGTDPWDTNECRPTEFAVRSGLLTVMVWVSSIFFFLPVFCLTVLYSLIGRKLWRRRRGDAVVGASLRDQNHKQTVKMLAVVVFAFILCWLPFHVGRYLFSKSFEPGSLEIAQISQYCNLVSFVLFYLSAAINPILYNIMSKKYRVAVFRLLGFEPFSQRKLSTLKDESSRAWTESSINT

| IC50 (GHSR1a [1]) [nM] | EC50 (GHSR1a [2]) [nM] | Emax (GHSR1a [2]) | SMILES |
| --- | --- | --- | --- |
| 9 | > 30000 | – | COC(=O)c1ccc(CN(C(=O)NC(C)c2ccc(-c3cccnc3)c(Cl)c2Cl)C2CCN(C)CC2)cc1 (stereo not drawn) [Compound H0539, methyl 4-((3-(1-(2,3-dichloro-4-(pyridin-3-yl)phenyl)ethyl)-1-(1-methylpiperidin-4-yl)ureido)methyl)benzoate] |
| 65 | 24 | 3246 | CC(NC(=O)N(C)C1CCN(C)CC1)c1ccc(-c2cnc(C3CC3)nc2)c(Cl)c1Cl (stereo not drawn) [Compound H0854, 3-(1-(2,3-dichloro-4-(2-cyclopropylpyrimidin-5-yl)phenyl)ethyl)-1-methyl-1-(1-methylpiperidin-4-yl)urea] |
| 13 | 37 | – | CC(NC(=O)N(C)C1CCN(C)CC1)c1ccc(CF)c(Cl)c1Cl (stereo not drawn) [Compound H0634, 3-(1-(2,3-dichloro-4-(fluoromethyl)phenyl)ethyl)-1-methyl-1-(1-methylpiperidin-4-yl)urea] |
| > 1 | > 30000 | – | CN1CCC(N(C)C(=O)NC2(c3ccc(-c4cccs4)c(Cl)c3Cl)CC2)CC1 [Compound H0672, 3-(1-(2,3-dichloro-4-(thiophen-2-yl)phenyl)cyclopropyl)-1-methyl-1-(1-methylpiperidin-4-yl)urea] |
| 2300 | > 30000 | – | CC(NC(=O)N(C)C1CCN(C)CC1)c1ccc(-c2cnc(N3CCN(C)CC3)c(C#N)c2)c(Cl)c1Cl (stereo not drawn) [Compound H0821, 3-(1-(2,3-dichloro-4-(5-cyano-6-(4-methylpiperazin-1-yl)pyridin-3-yl)phenyl)ethyl)-1-methyl-1-(1-methylpiperidin-4-yl)urea] |
| 209 | > 30000 | – | CC(NC(=O)N(C)C1CCN(C)CC1)c1ccc(-c2cncc(-c3ncccn3)c2)c(Cl)c1Cl (stereo not drawn) [Compound H0735, 3-(1-(2,3-dichloro-4-(5-(pyrimidin-2-yl)pyridin-3-yl)phenyl)ethyl)-1-methyl-1-(1-methylpiperidin-4-yl)urea] |
| 554 | > 30000 | – | CC(NC(=O)N(C)C1CCN(C)CC1)c1ccc(-c2cncc(-c3cnn(C)c3)c2)c(Cl)c1Cl (stereo not drawn) [Compound H0748, 3-(1-(2,3-dichloro-4-(5-(1-methyl-1H-pyrazol-4-yl)pyridin-3-yl)phenyl)ethyl)-1-methyl-1-(1-methylpiperidin-4-yl)urea] |
| 8 | 10 | 2168 | CC(NC(=O)N(C)C1CCN(C)CC1)c1ccc(-c2ccc(CF)s2)c(Cl)c1Cl (stereo not drawn) [Compound H0668, 3-(1-(2,3-dichloro-4-(5-(fluoromethyl)thiophen-2-yl)phenyl)ethyl)-1-methyl-1-(1-methylpiperidin-4-yl)urea] |
| 57 | 42 | 2479 | CCc1cncc(-c2ccc(C(C)NC(=O)N(C)C3CCN(C)CC3)c(Cl)c2Cl)c1 (stereo not drawn) [Compound H0715, 3-(1-(2,3-dichloro-4-(5-ethylpyridin-3-yl)phenyl)ethyl)-1-methyl-1-(1-methylpiperidin-4-yl)urea] |
| 529 | > 30000 | – | CC(NC(=O)N(C)C1CCN(C)CC1)c1ccc(NC(=O)Nc2cccs2)c(Cl)c1Cl (stereo not drawn) [Compound H0784, 3-(1-(2,3-dichloro-4-(4-(thiophen-2-yl)ureido)phenyl)ethyl)-1-methyl-1-(1-methylpiperidin-4-yl)urea] |
| 309 | > 30000 | – | COCCn1cc(-c2ccc(C(C)NC(=O)N(C)C3CCN(C)CC3)c(Cl)c2Cl)cn1 (stereo not drawn) [Compound H0694, 3-(1-(2,3-dichloro-4-(1-(2-methoxyethyl)-1H-pyrazol-4-yl)phenyl)ethyl)-1-methyl-1-(1-methylpiperidin-4-yl)urea] |
| 544 | > 30000 | – | CC(NC(=O)N(C)C1CCN(C)CC1)c1ccc(-c2cccc3[nH]ncc23)c(Cl)c1Cl (stereo not drawn) [Compound H0513, 3-(1-(2,3-dichloro-4-(1H-indazol-4-yl)phenyl)ethyl)-1-methyl-1-(1-methylpiperidin-4-yl)urea] |

From patent US9546157B2, “Asymmetric piperidinyl-substituted ureas as medicines” (Helsinn Healthcare SA, priority 2014, dated 2017)
